Experimental data published in patent US7452701B2, “Methods for the preparation of β-amino acids” (Wisconsin Alumni Research Foundation, priority 1998, dated 2008).
“Also recorded” adds a separate entry of the source.

Columns and labels:
[1] = target: T1, Clostridium subterminale SB4 lysine-2,3-aminomutase (Clostridium subterminale, UniProt Q9XBQ8); assay: EPR spectroscopy of lysine 2,3-aminomutase and coenzymes mixed with L-α-amino acids; format: biochemical; settings: amino acid in place of L-lysine, frozen, EPR at 77 K
T1 construct: made in house; host or cells: E. coli BL21(DE3) with pET-23a(+) (lysine 2,3-aminomutase gene) and pAlter-Ex2 (dnaY gene)
Description: FIG. 3 is electron paramagnetic resonance (EPR) spectroscopy of Clostridium subterminale SB4 lysine-2,3-aminomutase in the presence of L-lysine (1), L-aspartate (2), L-glutamate (3), or no substrate (4). Reductively incubated recombinant-produced purified lysine-2,3-aminomutase (18) (75 μM-hexamer) was quickly mixed at 24° C. and frozen (total time<15 sec) at −150° C. with the following components: A) Tris(hydroxymethyl)aminomethane sulfate (Tris-sulfate) 240 mM pH 8.0; B) S-(5′-adenosyl)-L-methionine 1.4 mM; C) sodium hydrosulfite 2.0 mM; D) L-lysine, L-aspartate, or L-glutamate 120 mM. Concentrations listed are final concentrations after mixing. Following freezing, samples were evaluated at 77° K by EPR using a Varian model E3 spectrometer with the following settings: Field center—3250 Gauss; Scan width—200 Gauss; Microwave frequency—9.1 GHz; Microwave power—5 milli Watts; Modulation frequency—100 kHz; Modulation amplitude—1.6 Gauss; Time constant—0.3 sec.; Scan time—240 sec; Gain—125,000.
FIG. 4 is electron paramagnetic resonance (EPR) spectroscopy of Clostridium subterminale SB4 lysine-2,3-aminomutase in the presence of L-alanine (2), L-alanine+ethylamine (3) L-alanine+propylamine (4), L-lysine (5) and no substrate (1). Conditions as given in FIG. 3 except L-lysine or L-alanine 120 mM; ± ethylamine or propylamine each 0.19 M or no substrate (5).
FIG. 5 is electron paramagnetic resonance spectroscopy of Clostridium subterminale SB4 lysine-2,3-aminomutase in the presence of L-lysine (1), L-homoserine (2), DL-homocysteine (3), or L-methionine (4). Reductively incubated recombinant-produced purified lysine-2.3-aminomutase (18) (51.4 μM-hexamer) was quickly mixed at 24° C. and frozen (total time<15 sec) at −150° C. with the following components: A) Tris(hydroxymethyl)aminomethane sulfate (Tris-sulfate) 185 mM pH 8.0; B) S-(5′-adenosyl)-L-methionine 1.1 mM; C) sodium hydrosulfite 1.5 mM; D) L-lysine 92 mM, L-homoserine 92 mM, or DL-homocysteine 92 mM, or L-methionine 65 mM. Concentrations listed are final concentrations after mixing. Following freezing, samples were evaluated at 77° K by EPR using a Varian model E3 spectrometer with the following settings: Field center—3250 Gauss; Scan width—200 Gauss; Microwave frequency—9.1 GHz; Microwave power—5 milli Watts; Modulation frequency—100 kHz; Modulation amplitude—1.6 Gauss; Time constant—0.3 sec.; Scan time—240 sec; Gain—250,000. FIG. 4B. 4.6×enlargement of (2), (3), and (4) of FIG. 4A.
Although lysine 2,3-aminomutase is selective for L-lysine as its substrate, it also catalyzes the 2,3-aminomutation of other L-α-amino acids. A simple and definitive assay for such reaction is the EPR spectrum of a mixture of lysine 2,3-aminomutase with its coenzymes and an L-α-amino acid.
The spectral envelope is determined by five structural features in the substrate: 1) the L-configuration at the optically active carbon-2, shown as Cα in FIG. 1A; 2) a hydrogen atom bonded to Cα; 3) a carboxyl group bonded to Cα; 4) a nitrogen atom bonded to Cβ; and 5) a hydrogen atom bonded to Cβ. […] The conformation of the radical is determined by the dihedral angles relating the axis of the π-radical orbital to the bonds Cα—H, Cβ—H, and Cβ—N, and these angles determine the nuclear hyperfine splitting in the spectrum and, thereby, the shape of the spectral envelope.

[2] = target: T1, Clostridium subterminale SB4 lysine-2,3-aminomutase; assay: Conversion of L-alanine to β-alanine by lysine 2,3-aminomutase, HPLC of PITC derivatives; format: biochemical; settings: for effect of amine on generation of β-alanine from L-alanine: amine 0.2 M, L-alanine 0.38 M, 90 min at 37° C.
Description: FIG. 6 is time course of the appearance of the HPLC peak of β-alanine by Clostridium subterminale SB4 lysine 2,3-aminomutase. Reductively incubated recombinant-produced purified lysine-2,3-aminomutase (18) (10 μM-hexamer) was mixed with the following components: A) N-[2-hydroxyethyl-piperazine-N′-[3-propanesulfonic acid] (EPPS) 36 mM pH 8.0, Na salt; B) S-(5′-adenosyl)-L-methionine 390 μM; C) sodium hydrosulfite 3.6 mM; D) L-alanine 380 mM; E) ethylamine 0.20 M pH 8.0. At various time intervals at 37° C., 60 μl of reaction mix was added to 20 μl of 2 N perchloric acid to stop the reaction. Samples were centrifuged at 14,000×g for 10 mm. The supernatants were treated with phenylisothiocyanate (PITC) according to the method of Heinrikson and Meredith (28). The PITC derivative of L-alanine was separated from the β-alanine derivative by HPLC chromatography (28) using a C18 reverse phase column (Beckman Ultrasphere 5μ, 4.6 mm×25 cm, #235329), flow rate 1 ml/min, room temperature. The amino acids were resolved with a complex linear gradient composed of buffer A: 0.05 M ammonium acetate in water and buffer B: 0.1M ammonium acetate in 44% water, 46% acetonitrile, 10% methanol. The gradient established was 0-10% Buffer B in 35 min, then 10-30% Buffer B in 35 min. The PITC derivative of L-alanine elutes at a retention time of 35.0 min whereas the PITC derivative of β-alanine elutes at 26.6 min.
FIG. 8 is the effect of varying concentrations of L-alanine on the production of β-alanine by Clostridiurn subterminale SB4 lysine 2,3-aminomutase. Experimental conditions as given in FIG. 6 except for the concentration of L-alanine. The concentrations of L-alanine used: 0.05 M (2), 0.11 M (3), 0.20 M (4), and 0.38 M (5). The zero reaction time HPLC elution profile for 0.05 M L-alanine (1) is included. The enzyme was reacted with L-alanine for 90 min at 37° C. prior to stopping with perchloric acid and PITC derivatization.
FIG. 9 is the potentiating effect of ethyl and propylamines on the generation of β-alanine from L-alanine by Clostridium subterminale SB4 lysine 2,3-aminomutase. […]
Reductively incubated recombinant-produced purified Clostridium subterminale SB4 lysine-2,3-aminomutase (10 μM-hexamer) was mixed with the following components: 1) EPPS buffer 36 mM pH 8.0, Na salt; 2) S-(5′-adenosyl)-L-methionine 390 μM; 3) sodium hydrosulfite 3.6 mM; 4) L-alanine 380 mM; 5) ethylamine 0.20 M pH 8.0. […] The eluting compounds were detected by spectrophotometry at a wavelength of 254 nm The amino acids were resolved with a complex linear gradient composed of buffer A: 0.05 M ammonium acetate in water and buffer B: 0.1M ammonium acetate in 44% water, 46% acetonitrile, 10% methanol. […]

[3] = target: T2, Clostridial lysine 2,3-aminomutase (Clostridium subterminale, UniProt Q9XBQ8); settings: purified enzyme from Clostridium subterminale SB4 cells; Lieder et al., Biochemistry 37:2578 (1998); cited from earlier work
T2 construct: made in house; host or cells: E. coli BL21(DE3) with pET-23a(+) (lysine 2,3-aminomutase gene) and pAlter-Ex2 (dnaY gene)

lysine 2,3-aminomutase = target: T3, lysine 2,3-aminomutase (Bacillus subtilis, UniProt O34676); assay: Lysine 2,3-aminomutase activity of extracts of E. coli BL21 (DE3) cells expressing the B. subtilus gene; format: biochemical, Bacillus subtilus; settings: pET23a(+) construct in E. coli BL21 (DE3), induction with 1 mM IPTG
T3 construct: made in house; host or cells: E. coli BL21 (DE3), pET23a(+), NdeI/XhoI; cell extract
Description: In one instance, the gene from Bacillus subtilus (SEQ ID NO:9) was isolated from chromosomal DNA by PCR generating an oligonucleotide insert which after the appropriate restriction digestion was cloned into the NdeI and XhoI site of pET23a(+) expression vector (Novagen, Inc., Madison, Wis.).

Molecule	EPR spectrum of product-related radical compared with L-lysine [1]	further results
NC(CCS)C(=O)O (racemic) [DL-homocysteine]	less intense but otherwise essentially indistinguishable from that with L-lysine	
C[C@H](N)C(=O)O [L-alanine]	less intense but otherwise essentially indistinguishable from that with L-lysine	production of β-alanine from L-alanine ([2]; L-alanine 0.05 M to 0.38 M, ethylamine 0.20 M, 37° C.): β-alanine was produced from L-alanine; also recorded: increased β-alanine with increased substrate (L-alanine) concentration; rate of conversion of L-alanine to β-alanine relative to the rate with 0.2 M ethylamine ([2]; in the absence of ethylamine or propylamine, estimated): about 1/20
N[C@@H](CC(=O)O)C(=O)O [L-aspartate]	less intense but otherwise essentially indistinguishable from that with L-lysine	
N[C@@H](CCC(=O)O)C(=O)O [L-glutamate]	less intense but otherwise essentially indistinguishable from that with L-lysine	
N[C@@H](CCO)C(=O)O [L-homoserine]	less intense but otherwise essentially indistinguishable from that with L-lysine	
CSCC[C@H](N)C(=O)O [L-methionine]	weak but also consistent with expectations for the analogous radical	
CCCN [Propylamine]		effect of amine on generation of β-alanine from L-alanine [2]: potentiates the reaction less effectively than ethylamine
CCN [ethylamine]		effect of amine on generation of β-alanine from L-alanine [2]: potentiated
purified lysine 2,3-aminomutase from Clostridium subterminale SB4 cells: naturally produced Clostridial enzyme, SEQ ID NO: 2 (protein, Clostridium subterminale) MINRRYELFKDVSDADWNDWRWQVRNRIETVEELKKYIPLTKEEEEGVAQCVKSLRMAITPYYLSLIDPNDPNDPVRKQAIPTALELNKAAADLEDPLHEDTDSPVPGLTHRYPDRVLLLITDMCSMYCRHCTRRRFAGQSDDSMPMERIDKAIDYIRNTPQVRDVLLSGGDALLVSDETLEYIIAKLREIPHVEIVRIGSRTPVVLPQRITPELVNMLKKYHPVWLNTHFNHPNEITEESTRACQLLADAGVPLGNQSVLLRGVNDCVHVMKELVNKLVKIRVRPYYIYQCDLSLGLEHFRTPVSKGIEIIEGLRGHTSGYCVPTFVVDAPGGGGKTPVMPNYVISQSHDKVILRNFEGVITTYSEPINYTPGCNCDVCTGKKKVHKVGVAGLLNGEGMALEPVGLERNKRHVQE		specific activity [3]: 30-40 units/mg
Bacillus subtilus (SEQ ID NO:9): product of the Bacillus subtilus gene cloned in pET23a(+) and expressed in E. coli BL21 (DE3); tested as cell extract (protein, listed as Bacillus subtilis, CDS (1)..(1413), product of the Bacillus subtilus gene cloned in pET23a(+) and expressed in E. coli BL21 (DE3); tested as cell extract) MKNKWYKPKRHWKEIELWKDVPEEKWNDWLWQLTHTVRTLDDLKKVINLTEDEEEGVRISTKTIPLNITPYYASLMDPDNPRCPVRMQSVPLSEEMHKTKYDLEDPLHEDEDSPVPGLTHRYPDRVLFLVTNQCSMYCRYCTRRRFSGQIGMGVPKKQLDAAIAYIRETPEIRDCLISGGDGLLINDQILEYILKELRSIPHLEVIRIGTRAPVVFPQRITDHLCEILKKYHPVWLNTHFNTSIEMTEESVEACEKLVNAGVPVGNQAVVLAGINDSVPIMKKLMHDLVKIRVRPYYIYQCDLSEGIGHFRAPVSKGLEIIEGLRGHTSGYAVPTFVVDAPGGGGKIALQPNYVLSQSPDKVILRNFEGVITSYPEPENYIPNQADAYFESVFPETADKKEPIGLSAIFADKEVSFTPENVDRIKRREAYIANPEHETLKDRREKRDQLKEKKFLAQQKKQKETECGGDSS		lysine 2,3-aminomutase activity of cell extracts (lysine 2,3-aminomutase): exhibiting lysine 2,3-aminomutase activity
